Laboratory results from US20240158446A1, “CYCLIC COMPOUND HAVING SELECTIVE INHIBITORY ACTION ON KRAS OVER HRAS AND NRAS” (CHUGAI SEIYAKU KABUSHIKI KAISHA, priority 2021, published 2024).
Where a SMILES comes first, the peptide text is derived from it. Bridges are numbered along the chain shown (N, C = ends). [ ]: non-standard residue; d: D form. The star is where a group is joined. hPhe(3-Cl-4-CF3) = N[C@@H](CCc1ccc(C(F)(F)F)c(Cl)c1)C(=O)O; NPrPhe(4-CF3) = CCCN[C@@H](Cc1ccc(C(F)(F)F)cc1)C(=O)O; NEtPhe(4-CF3) = CCN[C@@H](Cc1ccc(C(F)(F)F)cc1)C(=O)O; hPhe(3,4-Cl2) = N[C@@H](CCc1ccc(Cl)c(Cl)c1)C(=O)O; NMeGly(cPent) = CN[C@H](C(=O)O)C1CCCC1; cisHyp = O=C(O)[C@@H]1C[C@H](O)CN1; Hyp = O=C(O)[C@@H]1C[C@@H](O)CN1; NMeD = CN[C@@H](CC(=O)O)C(=O)O; NMeL = CN[C@@H](CC(C)C)C(=O)O; Ac6c = NC1(C(=O)O)CCCCC1; Morpholide = C1CN(*)CCO1; NMeA = CN[C@@H](C)C(=O)O; Ac5c = NC1(C(=O)O)CCCC1; Aze = O=C(O)[C@@H]1CCN1; Ethyl(2,2-F2) = FC(F)C*; Ac3c = NC1(C(=O)O)CC1; Aib = CC(C)(N)C(=O)O; Sar = CNCC(=O)O

Tests used:
[1] = target: GDP-bound NRAS wild-type protein (Homo sapiens, UniProt P01111); test: Binding to NRAS by surface plasmon resonance (SPR), Single Cycle Kinetics; conditions: SPR, GDP-bound NRAS wild-type protein vs GDP-bound KRAS wild-type protein
Chain of GDP-bound NRAS wild-type protein (P01111 whole entry): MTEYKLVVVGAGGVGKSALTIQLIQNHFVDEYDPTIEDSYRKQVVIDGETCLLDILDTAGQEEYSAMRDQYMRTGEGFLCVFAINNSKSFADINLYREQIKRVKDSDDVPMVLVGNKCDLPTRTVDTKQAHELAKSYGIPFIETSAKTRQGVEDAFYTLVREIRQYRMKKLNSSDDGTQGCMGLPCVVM

[2] = target: GDP-bound KRAS wild-type protein (Homo sapiens, UniProt P01116); test: Binding to KRAS by surface plasmon resonance (SPR), Single Cycle Kinetics; conditions: SPR Single Cycle Kinetics, GDP-bound KRAS wild-type protein, 1:1 binding model; read-out: KRAS KD
Chain of GDP-bound KRAS wild-type protein (P01116 whole entry): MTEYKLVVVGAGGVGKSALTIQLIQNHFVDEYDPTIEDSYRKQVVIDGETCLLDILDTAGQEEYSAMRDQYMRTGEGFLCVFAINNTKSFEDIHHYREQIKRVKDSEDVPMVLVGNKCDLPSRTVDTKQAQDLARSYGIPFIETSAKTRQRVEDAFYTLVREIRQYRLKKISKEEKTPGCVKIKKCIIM

[3] = target: GDP-bound HRAS wild-type protein (Homo sapiens, UniProt P01112); test: Binding to HRAS by surface plasmon resonance (SPR), Single Cycle Kinetics; conditions: SPR, GDP-bound HRAS wild-type protein vs GDP-bound KRAS wild-type protein
Chain of GDP-bound HRAS wild-type protein (P01112 whole entry): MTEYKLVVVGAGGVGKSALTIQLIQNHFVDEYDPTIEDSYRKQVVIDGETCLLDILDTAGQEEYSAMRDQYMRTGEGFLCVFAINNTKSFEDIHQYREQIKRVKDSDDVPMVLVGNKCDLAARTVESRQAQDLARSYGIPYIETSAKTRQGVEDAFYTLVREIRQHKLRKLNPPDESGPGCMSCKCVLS

CCCN1C(=O)CN(C)C(=O)CN(C)C(=O)[C@H]([C@@H](C)CC)NC(=O)[C@H](CC(C)C)N(C)C(=O)C[C@@H](C(=O)N2CCOCC2)N(C)C(=O)[C@H](C2CCCC2)N(C)C(=O)C2(CC2)NC(=O)[C@@H]2CCCN2C(=O)[C@H](CCc2ccc(C(F)(F)F)c(Cl)c2)NC(=O)CN(C)C(=O)[C@@H]1Cc1ccc(C(F)(F)F)cc1 [PP0229] ([NMeL]I[Sar][Sar][NPrPhe(4-CF3)][Sar][hPhe(3-Cl-4-CF3)]P[Ac3c][NMeGly(cPent)][NMeD]-Morpholide; lactam N-11)
NRAS/KRAS (ratio of KD value for NRAS to KD value for KRAS) [1]: B (a compound having 3 or more and less than 10 is denoted as B) | Kd [2]: 0.25 nM | HRAS/KRAS (ratio of KD value for HRAS to KD value for KRAS) [3]: B (a compound having 3 or more and less than 10 is denoted as B)

CCCN1C(=O)CN(C)C(=O)CN(C)C(=O)[C@H]([C@@H](C)CC)NC(=O)[C@H](CC(C)C)N(C)C(=O)C[C@@H](C(=O)N2CCOCC2)N(C)C(=O)[C@H](C2CCCC2)N(C)C(=O)C(C)(C)NC(=O)[C@@H]2CCCN2C(=O)[C@H](CCc2ccc(C(F)(F)F)c(Cl)c2)NC(=O)CN(C)C(=O)[C@@H]1Cc1ccc(C(F)(F)F)cc1 [PP0230] ([NMeL]I[Sar][Sar][NPrPhe(4-CF3)][Sar][hPhe(3-Cl-4-CF3)]P[Aib][NMeGly(cPent)][NMeD]-Morpholide; lactam N-11)
NRAS/KRAS (ratio of KD value for NRAS to KD value for KRAS) [1]: B (a compound having 3 or more and less than 10 is denoted as B) | Kd [2]: 0.39 nM | HRAS/KRAS (ratio of KD value for HRAS to KD value for KRAS) [3]: C (A compound having a KD ratio of 0.1 or more and less than 3 is denoted as C)

CCCN1C(=O)CN(C)C(=O)CN(C)C(=O)[C@H]([C@@H](C)CC)NC(=O)[C@H](CC(C)C)N(C)C(=O)C[C@@H](C(=O)N2CCOCC2)N(C)C(=O)[C@H](C2CCCC2)N(C)C(=O)C2(CCCCC2)NC(=O)[C@@H]2CCCN2C(=O)[C@H](CCc2ccc(C(F)(F)F)c(Cl)c2)NC(=O)CN(C)C(=O)[C@@H]1Cc1ccc(C(F)(F)F)cc1 [PP0231] ([NMeL]I[Sar][Sar][NPrPhe(4-CF3)][Sar][hPhe(3-Cl-4-CF3)]P[Ac6c][NMeGly(cPent)][NMeD]-Morpholide; lactam N-11)
NRAS/KRAS (ratio of KD value for NRAS to KD value for KRAS) [1]: B (a compound having 3 or more and less than 10 is denoted as B) | Kd [2]: 0.55 nM | HRAS/KRAS (ratio of KD value for HRAS to KD value for KRAS) [3]: C (A compound having a KD ratio of 0.1 or more and less than 3 is denoted as C)

CCCN1C(=O)CN(C)C(=O)CN(C)C(=O)[C@H]([C@@H](C)CC)NC(=O)[C@H](CC(C)C)N(C)C(=O)C[C@@H](C(=O)N2CCOCC2)N(C)C(=O)[C@H](C2CCCC2)N(C)C(=O)C2(CCCC2)NC(=O)[C@@H]2CCCN2C(=O)[C@H](CCc2ccc(Cl)c(Cl)c2)NC(=O)CN(C)C(=O)[C@@H]1Cc1ccc(C(F)(F)F)cc1 [PP0232] ([NMeL]I[Sar][Sar][NPrPhe(4-CF3)][Sar][hPhe(3,4-Cl2)]P[Ac5c][NMeGly(cPent)][NMeD]-Morpholide; lactam N-11)
NRAS/KRAS (ratio of KD value for NRAS to KD value for KRAS) [1]: B (a compound having 3 or more and less than 10 is denoted as B) | Kd [2]: 0.28 nM | HRAS/KRAS (ratio of KD value for HRAS to KD value for KRAS) [3]: B (a compound having 3 or more and less than 10 is denoted as B)

CCCN1C(=O)CN(C)C(=O)CN(C)C(=O)[C@H]([C@@H](C)CC)NC(=O)[C@H](CC(C)C)N(C)C(=O)C[C@@H](C(=O)N2CCOCC2)N(C)C(=O)[C@H](C2CCCC2)N(C)C(=O)C2(CCCC2)NC(=O)[C@@H]2C[C@@H](OCC)CN2C(=O)[C@H](CCc2ccc(C(F)(F)F)c(Cl)c2)NC(=O)CN(C)C(=O)[C@@H]1Cc1ccc(C(F)(F)F)cc1 [PP0233] ([NMeL]I[Sar][Sar][NPrPhe(4-CF3)][Sar][hPhe(3-Cl-4-CF3)][Hyp](Et)[Ac5c][NMeGly(cPent)][NMeD]-Morpholide; lactam N-11)
NRAS/KRAS (ratio of KD value for NRAS to KD value for KRAS) [1]: B (a compound having 3 or more and less than 10 is denoted as B) | Kd [2]: 0.052 nM | HRAS/KRAS (ratio of KD value for HRAS to KD value for KRAS) [3]: C (A compound having a KD ratio of 0.1 or more and less than 3 is denoted as C)

CC[C@H](C)[C@@H]1NC(=O)[C@H](CC(C)C)N(C)C(=O)C[C@@H](C(=O)N2CCOCC2)N(C)C(=O)[C@H](C2CCCC2)N(C)C(=O)C2(CCCCC2)NC(=O)[C@@H]2CCCN2C(=O)[C@H](CCc2ccc(C(F)(F)F)c(Cl)c2)NC(=O)CN(C)C(=O)[C@H](Cc2ccc(C(F)(F)F)cc2)N(CC)C(=O)CN(C)C(=O)CN(C)C1=O [PP0236] ([NMeL]I[Sar][Sar][NEtPhe(4-CF3)][Sar][hPhe(3-Cl-4-CF3)]P[Ac6c][NMeGly(cPent)][NMeD]-Morpholide; lactam N-11)
NRAS/KRAS (ratio of KD value for NRAS to KD value for KRAS) [1]: B (a compound having 3 or more and less than 10 is denoted as B) | Kd [2]: 0.54 nM | HRAS/KRAS (ratio of KD value for HRAS to KD value for KRAS) [3]: C (A compound having a KD ratio of 0.1 or more and less than 3 is denoted as C)

CC[C@H](C)[C@@H]1NC(=O)[C@H](CC(C)C)N(C)C(=O)C[C@@H](C(=O)N2CCOCC2)N(C)C(=O)[C@H](C2CCCC2)N(C)C(=O)C2(CCCC2)NC(=O)[C@@H]2CCCN2C(=O)[C@H](CCc2ccc(Cl)c(Cl)c2)NC(=O)CN(C)C(=O)[C@H](Cc2ccc(C(F)(F)F)cc2)N(CC)C(=O)CN(C)C(=O)CN(C)C1=O [PP0237] ([NMeL]I[Sar][Sar][NEtPhe(4-CF3)][Sar][hPhe(3,4-Cl2)]P[Ac5c][NMeGly(cPent)][NMeD]-Morpholide; lactam N-11)
NRAS/KRAS (ratio of KD value for NRAS to KD value for KRAS) [1]: B (a compound having 3 or more and less than 10 is denoted as B) | Kd [2]: 0.28 nM | HRAS/KRAS (ratio of KD value for HRAS to KD value for KRAS) [3]: C (A compound having a KD ratio of 0.1 or more and less than 3 is denoted as C)

CCCN1C(=O)[C@@H]2CCN2C(=O)[C@H](C)N(C)C(=O)[C@H]([C@@H](C)CC)NC(=O)[C@H](CC(C)C)N(C)C(=O)C[C@@H](C(=O)N2CCOCC2)N(C)C(=O)[C@H](C2CCCC2)N(C)C(=O)C2(CCCC2)NC(=O)[C@@H]2C[C@@H](O)CN2C(=O)[C@H](CCc2ccc(C(F)(F)F)c(Cl)c2)NC(=O)CN(C)C(=O)[C@@H]1Cc1ccc(C(F)(F)F)cc1 [PP0239]
NRAS/KRAS (ratio of KD value for NRAS to KD value for KRAS) [1]: C (A compound having a KD ratio of 0.1 or more and less than 3 is denoted as C) | Kd [2]: 0.05 nM | HRAS/KRAS (ratio of KD value for HRAS to KD value for KRAS) [3]: B (a compound having 3 or more and less than 10 is denoted as B)

CCCN1C(=O)CN(C)C(=O)CN(C)C(=O)[C@H]([C@@H](C)CC)NC(=O)[C@H](CC(C)C)N(C)C(=O)C[C@@H](C(=O)N2CCOCC2)N(C)C(=O)[C@H](C2CCCC2)N(C)C(=O)C2(CCCC2)NC(=O)[C@@H]2C[C@@H](O)CN2C(=O)[C@H](CCc2ccc(C(F)(F)F)c(Cl)c2)NC(=O)CN(C)C(=O)[C@@H]1Cc1ccc(C(F)(F)F)cc1 [PP0241] ([NMeL]I[Sar][Sar][NPrPhe(4-CF3)][Sar][hPhe(3-Cl-4-CF3)][Hyp][Ac5c][NMeGly(cPent)][NMeD]-Morpholide; lactam N-11)
NRAS/KRAS (ratio of KD value for NRAS to KD value for KRAS) [1]: B (a compound having 3 or more and less than 10 is denoted as B) | Kd [2]: 0.052 nM | HRAS/KRAS (ratio of KD value for HRAS to KD value for KRAS) [3]: C (A compound having a KD ratio of 0.1 or more and less than 3 is denoted as C)

CCCN1C(=O)[C@@H]2CCN2C(=O)[C@H](C)N(C)C(=O)[C@H]([C@@H](C)CC)NC(=O)[C@H](CC(C)C)N(C)C(=O)C[C@@H](C(=O)N2CCOCC2)N(C)C(=O)[C@H](C2CCCC2)N(C)C(=O)C2(CCCC2)NC(=O)[C@@H]2C[C@H](OCC)CN2C(=O)[C@H](CCc2ccc(C(F)(F)F)c(Cl)c2)NC(=O)CN(C)C(=O)[C@@H]1Cc1ccc(C(F)(F)F)cc1 [PP0242] ([NMeL]I[NMeA][Aze][NPrPhe(4-CF3)][Sar][hPhe(3-Cl-4-CF3)][cisHyp](Et)[Ac5c][NMeGly(cPent)][NMeD]-Morpholide; lactam N-11)
NRAS/KRAS (ratio of KD value for NRAS to KD value for KRAS) [1]: C (A compound having a KD ratio of 0.1 or more and less than 3 is denoted as C) | Kd [2]: 0.2 nM | HRAS/KRAS (ratio of KD value for HRAS to KD value for KRAS) [3]: C (A compound having a KD ratio of 0.1 or more and less than 3 is denoted as C)

CCCN1C(=O)CN(C)C(=O)CN(C)C(=O)[C@H]([C@@H](C)CC)NC(=O)[C@H](CC(C)C)N(C)C(=O)C[C@@H](C(=O)N2CCOCC2)N(C)C(=O)[C@H](C2CCCC2)N(C)C(=O)C2(CCCC2)NC(=O)[C@@H]2C[C@H](OCC)CN2C(=O)[C@H](CCc2ccc(C(F)(F)F)c(Cl)c2)NC(=O)CN(C)C(=O)[C@@H]1Cc1ccc(C(F)(F)F)cc1 [PP0243] ([NMeL]I[Sar][Sar][NPrPhe(4-CF3)][Sar][hPhe(3-Cl-4-CF3)][cisHyp](Et)[Ac5c][NMeGly(cPent)][NMeD]-Morpholide; lactam N-11)
NRAS/KRAS (ratio of KD value for NRAS to KD value for KRAS) [1]: B (a compound having 3 or more and less than 10 is denoted as B) | Kd [2]: 0.31 nM | HRAS/KRAS (ratio of KD value for HRAS to KD value for KRAS) [3]: C (A compound having a KD ratio of 0.1 or more and less than 3 is denoted as C)

CCCN1C(=O)CN(C)C(=O)CN(C)C(=O)[C@H]([C@@H](C)CC)NC(=O)[C@H](CC(C)C)N(C)C(=O)C[C@@H](C(=O)N2CCOCC2)N(C)C(=O)[C@H](C2CCCC2)N(C)C(=O)C2(CCCC2)NC(=O)[C@@H]2C[C@@H](OCC(F)F)CN2C(=O)[C@H](CCc2ccc(C(F)(F)F)c(Cl)c2)NC(=O)CN(C)C(=O)[C@@H]1Cc1ccc(C(F)(F)F)cc1 [PP0246] ([NMeL]I[Sar][Sar][NPrPhe(4-CF3)][Sar][hPhe(3-Cl-4-CF3)][Hyp](Ethyl(2,2-F2))[Ac5c][NMeGly(cPent)][NMeD]-Morpholide; lactam N-11)
NRAS/KRAS (ratio of KD value for NRAS to KD value for KRAS) [1]: B (a compound having 3 or more and less than 10 is denoted as B) | Kd [2]: 0.054 nM | HRAS/KRAS (ratio of KD value for HRAS to KD value for KRAS) [3]: C (A compound having a KD ratio of 0.1 or more and less than 3 is denoted as C)
